Measurements published in patent publication US4859658A, “Compound compositions with improved analgesic antipyretic and anti-inflammatory activity” (Ricerfarma S.R.L., priority 1987, dated 1989).
Like-named read-outs stand apart in the source and are kept apart here.

How the values were obtained:
yeast-induced fever = assay: Anti-pyretic effect (yeast-induced) test in rats; format: in vivo, rat; conditions: oral gavage
Method: Anti-pyretic effect of Combination of Thiocetamol with Aspirin
(yeast-induced) test in rats
I. TEST MATERIALS: Thioacetamol, Aspirin
1. Fever in test animals was induced by subcutaneous
injection of yeast (10% in saline). Basal
rectal temperature (BRT) was determined in all
test animals with the aid of a YSI thermistor probe
2. Four hours after the yeast injection a test drug
suspended in 1% methyl cellulose (MC), was
administered by oral gavage to groups of
male rats (8 rats/group). Controls were
3. Measurements of rectal temperatures (ERT) in
response to the various treatments, were
carried out at 1, 3 and 5 hours after
the test drug administration.
Evaluation of anti-pyretic activity was based on the
temperature difference (Δt) between BRT and ERT at
each of the three respective test periods
for each treatment group.
Data was calculated by ranking Δt values obtained in
test drug-treated and control rats and expressed

[1] = single oral dose, cited from earlier work
[2] = cited from earlier work; for ED50: each compound alone, as reported by Maruyama Y. et al
[3] = cited from earlier work; for LD50: in vivo
[4] = tested on: carrageenin-induced oedema; assay: Anti-inflammatory effect, rat paw oedema test; format: in vivo; conditions: oral gavage
Method: I. TEST MATERIALS: Thioacetamol, Indomethacin (Indomet)
The test drugs, suspended in 1% methyl cellulose (MC),
were administered by oral gavage to groups of male rats
(6 rats/group). Controls were given MC only.
2. Three hours following the test drug administration,
0.1 ml carrageenin (1% in saline) was injected
sub-plantar into the right hind paw. Identically
saline-injected left hind paw served
3. Readings were taken on each paw 3 hours following
injection of the test drug. The volume of both
hind paws was measured with an Hg-displacement
Volumeter (Huge, Basile, Italy).
Evaluation of anti-inflammatory activity was based on
the difference in volume (ΔV) between
the right (carrageenin-induced oedema) and left
(saline-control) hind paws.
Data was calculated by ranking ΔV values obtained
in drug-treated and control rats and expressed
percent increase over control for normal

[5] = in vivo, 500 mg/kg
Description: It must be also pointed out that the combination of very low doses of each component is not toxic.

hepatic parenchyma = conditions: compared with parent paracetamol; cited from earlier work

With `CC(=O)Oc1ccccc1C(=O)O` [Aspirin] the “Δt at 1 hour” value (yeast-induced fever; 50 mg/kg) was 86%, the “Δt at 3 hour” value (yeast-induced fever; 50 mg/kg) was 83% and the “Δt at 5 hour” value (yeast-induced fever; 50 mg/kg) was 67%. The “Δt at 1 hour” value (yeast-induced fever; 100 mg/kg) was 67%, the “Δt at 3 hour” value (yeast-induced fever; 100 mg/kg) was 55% and the “Δt at 5 hour” value (yeast-induced fever; 100 mg/kg) was 56%. The “Δt at 1 hour” value (yeast-induced fever; 200 mg/kg) was 49%, the “Δt at 3 hour” value (yeast-induced fever; 200 mg/kg) was 29% and the “Δt at 5 hour” value (yeast-induced fever; 200 mg/kg) was 19%. The Gastric lesions ([1]; 100 mg/kg) was 0%, the Intestinal lesions ([1]; 100 mg/kg) was 0% and the Gastric lesions ([1]; 300 mg/kg) was 60%. For the same molecule, the Intestinal lesions ([1]; 300 mg/kg) was 10%, the Gastric lesions ([1]; 600 mg/kg) was 100% and the Intestinal lesions ([1]; 600 mg/kg) was 10%. For the same molecule, the ED50 [2] was 500 mg/kg and the LD50 [3] was 1000 mg/kg.
In the case of `O=C(O)Cc1ccccc1Nc1c(Cl)cccc1Cl` [Diclofenac], the ED50 [2] is given as 5 mg/kg.
For `CC(C)Cc1ccc(C(C)C(=O)O)cc1` (stereo not drawn) [Ibuprofen], the ED50 [2] is given as 60 mg/kg.
In the case of `COc1ccc2c(c1)c(CC(=O)O)c(C)n2C(=O)c1ccc(Cl)cc1` [Indomethacin], the “ΔV (percent over control)” value ([4]; 1 mg/kg) is reported as 85%, the “ΔV (percent over control)” value ([4]; 2 mg/kg) is reported as 63% and the “ΔV (percent over control)” value ([4]; 4 mg/kg) is reported as 58%. For the same molecule, the Gastric lesions ([1]; 3 mg/kg) was 0%, the Intestinal lesions ([1]; 3 mg/kg) was 0% and the Gastric lesions ([1]; 10 mg/kg) was 100%. For the same molecule, the Intestinal lesions ([1]; 10 mg/kg) was 30%, the “anti-inflammatory dose (ED50)” value ([2]; as reported) was 3.5 mg/kg and the ED50 [2] was 3.6 mg/kg. For the same molecule, the LD50 [3] was 15.2 mg/kg.
With `CC(=O)Nc1ccc(OC(=O)c2cccs2)cc1` [Thiocetamol, p-acetamidophenyl thiophene-2-carboxylate] the “ΔV (percent over control)” value ([4]; 150 mg/kg) was 90%, the “ΔV (percent over control)” value ([4]; 300 mg/kg) was 70% and the “ΔV (percent over control)” value ([4]; 600 mg/kg) was 62%. The “Δt at 1 hour” value (yeast-induced fever; 75 mg/kg) was 86%, the “Δt at 3 hour” value (yeast-induced fever; 75 mg/kg) was 91% and the “Δt at 5 hour” value (yeast-induced fever; 75 mg/kg) was 91%. The “Δt at 1 hour” value (yeast-induced fever; 150 mg/kg) was 47%, the “Δt at 3 hour” value (yeast-induced fever; 150 mg/kg) was 96% and the “Δt at 5 hour” value (yeast-induced fever; 150 mg/kg) was 84%. For the same molecule, the “Δt at 1 hour” value (yeast-induced fever; 300 mg/kg) was 26%, the “Δt at 3 hour” value (yeast-induced fever; 300 mg/kg) was 40% and the “Δt at 5 hour” value (yeast-induced fever; 300 mg/kg) was 61%. The toxic effects [5] was “without any toxic effects”, the “toxicity towards the hepatic parenchyma” value (hepatic parenchyma) was “remarkable lower toxicity towards the hepatic parenchyma” and the “acute median lethal dose (LD50)” value ([3]; compared with parent paracetamol, in words) was “far lower than that of the parent paracetamol”. The LD50 [3] was “around 2000 mg/kg”.
